Columns and labels:
[1] = system: gingiva cells
Experimental: (§1) 12% stock solution is prepared from boric acid (12 g boric acid/100 ml distilled water). ½, ¼, ⅛, 1/16, 1/32, 1/64, 1/128 dilutions are prepared from this solution. All these processes are carried out in laminar flow cabin II. Solutions are sterilized by filters with a sieve size of 0.22 μm. The pH of the prepared boric acid solution must be 4.9.
(§2) The cytotoxicity of the obtained solution is tested by in vitro cell culture (in the gingiva and periodontal ligament cells) studies.

[2] = system: periodontal ligament cells
Experimental: as §1, §2

[3] = 1/16 solution, namely 0.75% solution (nontoxic dosage), and further dilution
Experimental: as §2

[4] = system: chronic periodontitis patients; conditions: boric acid 0.75%
[5] = prior art statement; cited from earlier work

SMILES	viability of the cells [1]	viability of the cells [2]	antibacterial features [3]	clinical periodontal parameters ([4]; compared to normal saline (control) and chlorhexidine groups)	side effects ([4]; three-month follow up of enrolled patients)	toxicity in cellular level [5]
OB(O)O [boric acid]	diminish the viability of the cells until a dilution of 1/16	diminish the viability of the cells until a dilution of 1/16	maintains its antibacterial features even if it is diluted more	better in clinical periodontal parameters compared to normal saline (control) and chlorhexidine groups	no side effects	–
[H]/N=C(\N/C(=N/[H])NCCCCCCNC(=N)NC(=N)Nc1ccc(Cl)cc1)Nc1ccc(Cl)cc1 [chlorhexidine]	–	–	–	–	–	toxic in cellular level

— patent publication US9616003B2 (priority 2012, dated 2017)
